Activity calls are given as the source filed them. The rule behind the calls is not given here.
Key:
[1] = tested on: PA-1; assay: Induction of apoptosis in human PA-1 cells assessed as necrotic cells at 40 uM incubated for 48 hrs by AnnexinV-FITC/PI staining based flow cytometry analysis (Rvb= 1.48%); format: functional
[2] = tested on: ES-2; assay: Antiproliferative activity against human ES2 cells assessed as inhibition of cell proliferation incubated for 72 hrs by MTT assay; format: functional, cell-based; conditions: ES-2, 72 h
[3] = Tmax in Sprague-Dawley rat at 100 mg/kg, po and measured upto 24 hrs by LC-MS/MS analysis; format: ADME, organism-based; conditions: in vivo
[4] = tested on: PA-1; assay: Antitumor activity against human PA-1 cells xenografted in BALB/C nude mouse assessed as increase apoptosis by measuring cleaved caspase-3 positive cells at 75 to 150 mg/kg,po BID for 21 days by immunohistochemical analysis; format: functional, organism-based; conditions: dose 75-150 mg/kg, time 21.0 day
[5] = Toxicity in BALB/C nude mouse xenografted with human PA-1 cells assessed as pathological changes in heart at 75 to 150 mg/kg,po BID for 21 days by H&E staining based microscopic analysis; format: organism-based; conditions: in vivo, 504 h, dose 75-150 mg/kg, time 21 day
[6] = Half life in Sprague-Dawley rat at 5 mg/kg, iv and measured upto 24 hrs by LC-MS/MS analysis; format: ADME, organism-based; conditions: in vivo
[7] = tested on: PA-1; assay: Inhibition of colony formation in human PA-1 cells assessed as reduction in number of colonies at 0.25 to 10 uM incubated for 14 days with medium change every 3 days by crystal violet staining method; format: functional, cell-based; conditions: dose 0.25-10 µM, time 14.0 day
[8] = biological target: T1, Histone-lysine N-methyltransferase EZH2 (Homo sapiens, UniProt Q15910); assay: Inhibition of EZH2 methyltransferase activity in human PA-1 cells assessed as reduction in H3K27me3 level at 0.3 to 5 uM incubated for 3 days by Western blot analysis; format: cell-based; conditions: dose 0.3-5 µM, time 3.0 day
[9] = tested on: Histone-lysine N-methyltransferase EZH2 (Homo sapiens), Q15910 [Y641F]; assay: Inhibition of EZH2 […] mutant (unknown origin) at 1 nM by AlphaLlSA assay
[10] = tested on: PA-1; assay: Antiproliferative activity against human PA-1 cells assessed as reduction in cell viability at 10 uM incubated for 3 days followed by compound washout and measured after 4 days by microscopy analysis; format: functional, cell-based; conditions: time 3.0 day
[11] = tested on: OVCAR-3; assay: Antiproliferative activity against human OVCAR-3 cells assessed as inhibition of cell proliferation incubated for 72 hrs by MTT assay; format: functional, cell-based; conditions: OVCAR-3, 72 h
[12] = Toxicity in BALB/C nude mouse xenografted with human PA-1 cells assessed as pathological changes in hematological parameters at 75 to 150 mg/kg,po BID for 21 days; format: organism-based; conditions: in vivo, 504 h, dose 75-150 mg/kg, time 21 day
[13] = tested on: MCF7; assay: Antiproliferative activity against human MCF7 cells assessed as inhibition of cell proliferation incubated for 72 hrs by MTT assay; format: functional, cell-based; conditions: MCF7, 72 h
[14] = tested on: PA-1; assay: Induction of apoptosis in human PA-1 cells assessed as viable cells at 40 uM incubated for 48 hrs by AnnexinV-FITC/PI staining based flow cytometry analysis (Rvb= 88.53%); format: functional; conditions: read-out: Activity
[15] = tested on: PA-1; assay: Induction of apoptosis in human PA-1 cells assessed as late apoptotic cells at 5 uM incubated for 48 hrs by AnnexinV-FITC/PI staining based flow cytometry analysis (Rvb= 3.09%); format: functional
[16] = tested on: Histone-lysine N-methyltransferase EZH2 (Homo sapiens), Q15910 [Y641N]; assay: Inhibition of EZH2 […] mutant (unknown origin) at 1 nM by AlphaLlSA assay
[17] = biological target: Histone-lysine N-methyltransferase EZH1 (Homo sapiens) (UniProt Q92800); assay: Inhibition of EZH1 (unknown origin) by AlphaLlSA assay
[18] = biological target: T1, Histone-lysine N-methyltransferase EZH2; assay: Inhibition of EZH2 methyltransferase activity in human A2780 cells assessed as reduction in H3K27me3 level at 10 uM and measured upto 4 days by Western blot analysis; format: cell-based; conditions: time <= 4.0 day, TDE = time-dependent effect
[19] = tested on: 4T1; assay: Antiproliferative activity against mouse 4T1 cells assessed as inhibition of cell proliferation incubated for 72 hrs by MTT assay; format: functional, cell-based; conditions: 4T1, 72 h
[20] = tested on: PA-1; assay: Induction of apoptosis in human PA-1 cells assessed as necrotic cells at 5 uM incubated for 48 hrs by AnnexinV-FITC/PI staining based flow cytometry analysis (Rvb= 1.48%); format: functional
[21] = tested on: PA-1; assay: Induction of apoptosis in human PA-1 cells assessed as late apoptotic cells at 10 uM incubated for 48 hrs by AnnexinV-FITC/PI staining based flow cytometry analysis (Rvb= 3.09%); format: functional
[22] = biological target: Protein arginine N-methyltransferase 7 (Homo sapiens) (UniProt Q9NVM4); assay: Inhibition of PRMT7 (unknown origin) at 1 to 10 uM by AlphaLlSA assay; conditions: dose 1-10 µM
[23] = Tmax in Sprague-Dawley rat at 5 mg/kg, iv and measured upto 24 hrs by LC-MS/MS analysis; format: ADME, organism-based; conditions: in vivo
[24] = Antiproliferative activity against human COV362 cells assessed as inhibition of cell proliferation incubated for 72 hrs by MTT assay; format: functional, cell-based; conditions: COV362, 72 h
[25] = tested on: PA-1; assay: Induction of apoptosis in human PA-1 cells assessed as viable cells at 20 uM incubated for 48 hrs by AnnexinV-FITC/PI staining based flow cytometry analysis (Rvb= 88.53%); format: functional; conditions: read-out: Activity
[26] = Cmax in Sprague-Dawley rat at 5 mg/kg, iv and measured upto 24 hrs by LC-MS/MS analysis; format: ADME, organism-based; design: dose 5 mg/kg, time < 24 hrs, route iv; conditions: in vivo
[27] = Toxicity in BALB/C nude mouse xenografted with human PA-1 cells assessed as pathological changes in spleen at 75 to 150 mg/kg,po BID for 21 days by H&E staining based microscopic analysis; format: organism-based; conditions: in vivo, 504 h, dose 75-150 mg/kg, time 21 day
[28] = tested on: PA-1; assay: Induction of apoptosis in human PA-1 cells assessed as early apoptotic cells at 20 uM incubated for 48 hrs by AnnexinV-FITC/PI staining based flow cytometry analysis (Rvb= 6.89%); format: functional
[29] = tested on: Mus musculus; assay: In vivo inhibition of EZH2 in human PA-1 cells xenografted in BALB/C nude mouse assessed as reduction in H3K27me3 expression level at 75 to 150 mg/kg,po BID for 21 days by immunohistochemical analysis; format: functional, organism-based; conditions: dose 75-150 mg/kg, time 21.0 day
[30] = biological target: T1, Histone-lysine N-methyltransferase EZH2; assay: Covalent inhibition of EZH2 (unknown origin) assessed as slow change in dissociation rate preincubated for 60 mins followed by substrate addition and measured upto 90 mins using Mix-GL11 and 3H-SAM as substrate by spin column method; conditions: time > 150.0 min
[31] = tested on: SK-BR-3; assay: Antiproliferative activity against human SK-BR-3 cells assessed as inhibition of cell proliferation incubated for 72 hrs by MTT assay; format: functional, cell-based; conditions: SK-BR-3, 72 h
[32] = tested on: PA-1; assay: Induction of apoptosis in human PA-1 cells assessed as necrotic cells at 10 uM incubated for 48 hrs by AnnexinV-FITC/PI staining based flow cytometry analysis (Rvb= 1.48%); format: functional
[33] = tested on: SK-OV-3; assay: Antiproliferative activity against human SK-OV-3 cells assessed as inhibition of cell proliferation incubated for 72 hrs by MTT assay; format: functional, cell-based; conditions: SK-OV-3, 72 h
[34] = biological target: Histone-lysine N-methyltransferase SUV39H1 (Homo sapiens) (UniProt O43463); assay: Inhibition of SUV39H1 (unknown origin) at 1 to 10 uM by AlphaLlSA assay; conditions: dose 1-10 µM
Histone-lysine N-methyltransferase SUV39H1 (Homo sapiens), sequence (O43463 whole entry): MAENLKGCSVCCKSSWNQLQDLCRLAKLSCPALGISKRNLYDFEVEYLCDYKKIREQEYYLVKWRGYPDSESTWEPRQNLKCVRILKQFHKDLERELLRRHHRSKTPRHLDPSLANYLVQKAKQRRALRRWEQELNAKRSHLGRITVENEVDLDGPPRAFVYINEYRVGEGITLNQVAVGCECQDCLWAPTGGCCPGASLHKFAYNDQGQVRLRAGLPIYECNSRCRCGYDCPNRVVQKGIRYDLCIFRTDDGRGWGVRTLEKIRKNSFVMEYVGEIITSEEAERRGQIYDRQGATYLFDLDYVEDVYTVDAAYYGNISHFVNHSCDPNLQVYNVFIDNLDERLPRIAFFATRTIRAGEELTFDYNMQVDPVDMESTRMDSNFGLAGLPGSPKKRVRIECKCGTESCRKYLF

T1 sequence (Q15910 whole entry, looked up): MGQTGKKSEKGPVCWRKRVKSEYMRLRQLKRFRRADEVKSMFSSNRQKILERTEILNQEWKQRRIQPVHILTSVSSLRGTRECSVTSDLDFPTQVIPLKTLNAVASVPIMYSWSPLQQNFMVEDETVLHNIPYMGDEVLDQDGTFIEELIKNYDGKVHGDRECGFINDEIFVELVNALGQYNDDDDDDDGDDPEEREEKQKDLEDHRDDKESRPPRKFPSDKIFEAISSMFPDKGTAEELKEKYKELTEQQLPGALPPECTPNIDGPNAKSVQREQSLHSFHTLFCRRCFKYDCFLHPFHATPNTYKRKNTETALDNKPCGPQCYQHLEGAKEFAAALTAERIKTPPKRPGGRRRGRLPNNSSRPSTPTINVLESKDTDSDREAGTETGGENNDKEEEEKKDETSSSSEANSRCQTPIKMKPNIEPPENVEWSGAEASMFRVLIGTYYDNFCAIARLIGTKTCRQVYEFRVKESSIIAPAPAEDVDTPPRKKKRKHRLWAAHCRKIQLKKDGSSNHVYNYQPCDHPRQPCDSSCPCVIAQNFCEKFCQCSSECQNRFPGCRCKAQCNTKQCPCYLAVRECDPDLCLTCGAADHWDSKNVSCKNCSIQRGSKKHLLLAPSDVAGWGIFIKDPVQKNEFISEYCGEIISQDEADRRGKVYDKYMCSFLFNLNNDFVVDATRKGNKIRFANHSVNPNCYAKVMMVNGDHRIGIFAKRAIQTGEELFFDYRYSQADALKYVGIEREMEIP
Protein arginine N-methyltransferase 7 (Homo sapiens), sequence (Q9NVM4 whole entry): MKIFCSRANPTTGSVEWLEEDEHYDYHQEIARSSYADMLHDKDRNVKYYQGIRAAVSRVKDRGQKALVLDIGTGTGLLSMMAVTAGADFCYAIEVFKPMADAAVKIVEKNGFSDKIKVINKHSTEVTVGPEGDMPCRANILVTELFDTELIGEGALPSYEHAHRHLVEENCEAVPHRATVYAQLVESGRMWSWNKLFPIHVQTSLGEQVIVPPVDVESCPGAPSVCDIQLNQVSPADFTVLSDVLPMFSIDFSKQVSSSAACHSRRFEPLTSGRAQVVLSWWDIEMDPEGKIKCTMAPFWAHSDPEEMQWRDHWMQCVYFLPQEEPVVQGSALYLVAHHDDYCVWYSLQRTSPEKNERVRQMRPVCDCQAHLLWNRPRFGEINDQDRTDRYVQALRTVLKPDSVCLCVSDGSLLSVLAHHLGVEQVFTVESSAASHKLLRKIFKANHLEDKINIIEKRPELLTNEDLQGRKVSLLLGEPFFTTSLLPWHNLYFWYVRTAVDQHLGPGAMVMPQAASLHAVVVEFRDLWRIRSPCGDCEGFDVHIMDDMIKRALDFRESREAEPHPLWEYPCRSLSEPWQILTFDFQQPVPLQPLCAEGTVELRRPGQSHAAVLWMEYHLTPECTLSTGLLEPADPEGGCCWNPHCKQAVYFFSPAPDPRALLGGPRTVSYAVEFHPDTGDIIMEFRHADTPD
Histone-lysine N-methyltransferase EZH1 (Homo sapiens), sequence (Q92800 whole entry): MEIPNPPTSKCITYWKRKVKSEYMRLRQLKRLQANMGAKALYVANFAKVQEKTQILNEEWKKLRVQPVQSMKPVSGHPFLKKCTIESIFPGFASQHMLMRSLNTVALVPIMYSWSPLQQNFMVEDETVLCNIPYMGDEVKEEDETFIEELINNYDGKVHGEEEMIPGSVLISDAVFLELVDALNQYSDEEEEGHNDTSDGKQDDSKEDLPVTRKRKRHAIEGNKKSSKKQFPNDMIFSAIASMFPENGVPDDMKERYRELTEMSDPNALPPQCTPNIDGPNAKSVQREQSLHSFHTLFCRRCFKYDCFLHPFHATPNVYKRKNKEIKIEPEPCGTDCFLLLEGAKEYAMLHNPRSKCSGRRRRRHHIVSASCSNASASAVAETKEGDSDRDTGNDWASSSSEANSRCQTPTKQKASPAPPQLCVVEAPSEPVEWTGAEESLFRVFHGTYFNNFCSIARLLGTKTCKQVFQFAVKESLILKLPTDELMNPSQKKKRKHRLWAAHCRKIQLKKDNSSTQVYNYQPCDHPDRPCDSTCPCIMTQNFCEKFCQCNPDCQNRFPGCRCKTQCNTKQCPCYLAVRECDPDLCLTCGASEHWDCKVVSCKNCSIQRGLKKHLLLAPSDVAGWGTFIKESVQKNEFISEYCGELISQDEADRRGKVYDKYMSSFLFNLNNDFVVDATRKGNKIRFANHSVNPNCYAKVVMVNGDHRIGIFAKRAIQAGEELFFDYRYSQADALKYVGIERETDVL
Histone-lysine N-methyltransferase EZH2 (Homo sapiens), Q15910 [Y641F], sequence (Q15910 whole entry Y641F, looked up): as the sequence (Q15910 whole entry, looked up) above, with Y641F counted along it
Histone-lysine N-methyltransferase EZH2 (Homo sapiens), Q15910 [Y641N], sequence (Q15910 whole entry Y641N): as the sequence (Q15910 whole entry, looked up) above, with Y641N counted along it

In the case of `C=CC(=O)Nc1ccc(C)c(-c2cc(C(=O)NCc3c(C)cc(C)[nH]c3=O)c(C)c(N(CC)C3CCOCC3)c2)c1`, the Activity [1] is reported as 0.34%, the IC50 [2] is reported as 36.4 µM and the Tmax [3] is reported as 22.8 min. The Activity [4] was “Active”, the Activity [5] was “Non-Toxic” and the t1/2 [6] was 36.6 min. For the same molecule, the inhibition [7] was “Dose-Dependent Effect”, the inhibition [8] was “Dose-Dependent Effect” and the inhibition [9] was “Active”. The Activity [10] was “Active”, the IC50 [11] was 35.6 µM and the Activity [12] was “Non-Toxic”. For the same molecule, the IC50 [13] was 56.2 µM, the viability at 40 µM [14] was 10.3% and the Activity [15] was 5.21%. The inhibition [16] was “Active”, the inhibition [17] was “Active” and the inhibition [18] was “Tde”. The IC50 [19] was 24.5 µM, the Activity [20] was 1.22% and the Activity [21] was 6.16%. The inhibition [22] was “inactive”, the Tmax [23] was 4.8 min and the IC50 [24] was over 100 µM. For the same molecule, the viability at 20 µM [25] was 50.5%, the Cmax [26] was 22800 ng/mL and the Activity [27] was “Non-Toxic”. The Activity [28] was 31.78%, the inhibition [29] was “Active” and the inhibition [30] was “Active”. It also gave an IC50 [31] of 22.8 µM, an Activity [32] of 0.94% and an IC50 [33] of 56.4 µM. The inhibition [34] was “inactive”.
